Experimental data from ChEMBL document CHEMBL1201862, “PubChem BioAssay data set” (2004).
The source made the active and inactive calls.

Legend:
[1] = T. cruzi growth inhibition in host cells, dose response, cell-based, plate reader, dry powder, set 2 (AID 652275); type: functional
H9c2 = experiment: cells; type: functional, cell-based; details: Rattus norvegicus, H9c2, Myocardium;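 also: confirmatory concentration-response retest of ultra-high-throughput screening hits for modulation of myocardial damage; cell death induced by hydrogen peroxide oxidative stress; compound pretreatment for 60 min then peroxide exposure for 2 h; potency is for protecting the cells against peroxide damage rather than for killing them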
[2] = molecular target: DNA repair protein RAD52 homolog (Homo sapiens, UniProt P43351); type: functional, biochemical
Chain of DNA repair protein RAD52 homolog (P43351 whole entry): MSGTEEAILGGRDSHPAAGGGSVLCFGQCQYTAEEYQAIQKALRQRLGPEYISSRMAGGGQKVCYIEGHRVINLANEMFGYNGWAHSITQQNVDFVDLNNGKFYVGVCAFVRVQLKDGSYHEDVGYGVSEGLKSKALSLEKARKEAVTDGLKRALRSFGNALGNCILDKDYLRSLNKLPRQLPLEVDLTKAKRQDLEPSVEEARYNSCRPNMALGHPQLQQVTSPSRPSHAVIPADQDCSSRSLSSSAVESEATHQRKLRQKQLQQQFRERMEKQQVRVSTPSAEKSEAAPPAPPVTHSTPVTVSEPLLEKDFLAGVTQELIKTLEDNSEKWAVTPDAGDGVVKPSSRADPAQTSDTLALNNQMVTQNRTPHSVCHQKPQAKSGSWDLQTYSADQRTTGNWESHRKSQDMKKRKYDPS

Fatty acid synthase = Fatty acid synthase (Homo sapiens, UniProt P49327); experiment: inhibition of human FAS-TE enzyme activity – biochemical, endpoint fluorescence intensity, powder samples, SAR follow-up (AID 652164); type: functional
[3] = general mammalian cell viability loss – activator set, cherry-pick, cytotoxicity control for miR-122 modulator project, dose response (AID 720690); type: functional, cell-based;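 also: HEK293T human cells scored for general mammalian cytotoxicity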
[4] = activation of miR-122 Renilla sensor silencing – cell-based, Huh7 psiCHECK-miR122, Renilla luciferase, cherry-picked, dose response (AID 651956); type: functional;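 also: huh7 hepatoma cells stably carrying a psiCHECK-2 miR-122 sensor plasmid; renilla luciferase signal reporting endogenous miR-122 activity after 48 h compound exposure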
[5] = molecular target: Broad substrate specificity ATP-binding cassette transporter ABCG2 (Homo sapiens, UniProt Q9UNQ0); experiment: blockers of JC-1 export by ABCG2 – Ig-MXP3 cells, flow cytometry, dose response (AID 1690); type: functional
Chain of Broad substrate specificity ATP-binding cassette transporter ABCG2 (Q9UNQ0 whole entry): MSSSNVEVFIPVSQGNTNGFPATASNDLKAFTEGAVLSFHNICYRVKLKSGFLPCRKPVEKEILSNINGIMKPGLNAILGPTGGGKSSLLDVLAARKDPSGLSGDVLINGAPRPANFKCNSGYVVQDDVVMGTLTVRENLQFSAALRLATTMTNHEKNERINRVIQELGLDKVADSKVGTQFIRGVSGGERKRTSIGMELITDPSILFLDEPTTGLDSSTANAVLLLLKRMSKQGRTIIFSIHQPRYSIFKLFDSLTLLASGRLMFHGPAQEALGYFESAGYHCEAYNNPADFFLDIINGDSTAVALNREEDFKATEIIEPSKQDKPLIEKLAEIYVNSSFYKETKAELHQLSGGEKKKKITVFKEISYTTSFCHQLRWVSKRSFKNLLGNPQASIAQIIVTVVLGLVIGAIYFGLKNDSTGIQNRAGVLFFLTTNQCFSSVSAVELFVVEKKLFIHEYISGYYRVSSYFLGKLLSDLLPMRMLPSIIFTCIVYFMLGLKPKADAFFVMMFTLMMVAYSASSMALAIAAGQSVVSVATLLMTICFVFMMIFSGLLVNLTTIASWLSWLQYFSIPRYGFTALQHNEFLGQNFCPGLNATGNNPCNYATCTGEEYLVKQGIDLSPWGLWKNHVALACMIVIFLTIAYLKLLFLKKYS

[6] = molecular target: Matrix metalloproteinase-14 (Homo sapiens, UniProt P50281); experiment: Dose Response confirmation of uHTS hits for a small molecule inhibitors of MT1-MMP activation in a fluorescence assay set 1.; type: functional
Galanin receptor type 3 = Galanin receptor type 3 (Homo sapiens, UniProt O60755); experiment: Fluorescence-based cell-based primary high throughput dose response assay to identify antagonists of the Galanin Receptor 3 (GalR3).; type: functional
Chain of Galanin receptor type 3 (O60755 whole entry): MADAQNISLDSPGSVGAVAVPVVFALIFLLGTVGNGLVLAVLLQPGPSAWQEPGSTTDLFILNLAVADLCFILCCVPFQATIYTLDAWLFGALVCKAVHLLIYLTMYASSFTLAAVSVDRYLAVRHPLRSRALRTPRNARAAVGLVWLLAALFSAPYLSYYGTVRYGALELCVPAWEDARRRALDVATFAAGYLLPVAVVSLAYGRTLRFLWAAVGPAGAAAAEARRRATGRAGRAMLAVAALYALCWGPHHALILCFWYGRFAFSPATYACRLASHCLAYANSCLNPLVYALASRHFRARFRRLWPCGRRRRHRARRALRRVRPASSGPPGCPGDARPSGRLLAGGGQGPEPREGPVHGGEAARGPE

cells = type: functional, cell-based; details: HEK-CNG
[7] = HEK-293T viability loss after treatment – luminescence, T-cell screen hits, cytotoxicity control for TCR NF-kB inhibitor project, dose response (AID 489026); type: functional, cell-based;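 also: cells exposed to compound about 14 hours before the viability readout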
[8] = anti-trypanosomal activity in BESM host cells – imaging, CA-I/72 strain, bovine embryo skeletal muscle, dry powder, dose response (AID 651885); type: functional, cell-based
Vero = experiment: viability loss in Vero cells – cell-based, plate reader, cherry-pick samples, cytotoxicity control, dose response (AID 687020); type: functional; details: Chlorocebus sabaeus
[9] = molecular target: T1, High affinity choline transporter 1 (Homo sapiens, UniProt Q9GZV3); experiment: inhibition of SLC5A7-mediated choline transport – cell-based, HEK-293 hCHT, [3H]-choline uptake, dose response (AID 652177); type: functional
T1 sequence (Q9GZV3 whole entry): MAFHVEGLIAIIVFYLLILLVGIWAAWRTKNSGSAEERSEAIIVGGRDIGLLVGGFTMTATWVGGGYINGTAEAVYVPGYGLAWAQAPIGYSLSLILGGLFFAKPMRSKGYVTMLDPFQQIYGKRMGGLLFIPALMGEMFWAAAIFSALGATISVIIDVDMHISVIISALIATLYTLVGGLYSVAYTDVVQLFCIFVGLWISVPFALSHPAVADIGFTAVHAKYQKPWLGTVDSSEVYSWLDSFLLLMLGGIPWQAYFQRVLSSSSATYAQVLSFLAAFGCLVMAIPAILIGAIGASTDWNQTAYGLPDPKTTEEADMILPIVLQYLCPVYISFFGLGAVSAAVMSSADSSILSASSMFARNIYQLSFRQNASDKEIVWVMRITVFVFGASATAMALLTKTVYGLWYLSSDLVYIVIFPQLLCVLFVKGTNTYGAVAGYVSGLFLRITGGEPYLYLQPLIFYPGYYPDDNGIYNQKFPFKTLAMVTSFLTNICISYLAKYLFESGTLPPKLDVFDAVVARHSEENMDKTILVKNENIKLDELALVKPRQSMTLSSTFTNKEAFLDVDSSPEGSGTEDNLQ

[10] = molecular target: Tyrosine-protein phosphatase non-receptor type 11 (Homo sapiens, UniProt Q06124); experiment: PTPN11 enzyme inhibitors – biochemical, selectivity assay for STEP inhibitor project, dose response (AID 602367); type: functional; details: read-out: IC50_Mean
Chain of Tyrosine-protein phosphatase non-receptor type 11 (Q06124 whole entry, the tested form may be a part): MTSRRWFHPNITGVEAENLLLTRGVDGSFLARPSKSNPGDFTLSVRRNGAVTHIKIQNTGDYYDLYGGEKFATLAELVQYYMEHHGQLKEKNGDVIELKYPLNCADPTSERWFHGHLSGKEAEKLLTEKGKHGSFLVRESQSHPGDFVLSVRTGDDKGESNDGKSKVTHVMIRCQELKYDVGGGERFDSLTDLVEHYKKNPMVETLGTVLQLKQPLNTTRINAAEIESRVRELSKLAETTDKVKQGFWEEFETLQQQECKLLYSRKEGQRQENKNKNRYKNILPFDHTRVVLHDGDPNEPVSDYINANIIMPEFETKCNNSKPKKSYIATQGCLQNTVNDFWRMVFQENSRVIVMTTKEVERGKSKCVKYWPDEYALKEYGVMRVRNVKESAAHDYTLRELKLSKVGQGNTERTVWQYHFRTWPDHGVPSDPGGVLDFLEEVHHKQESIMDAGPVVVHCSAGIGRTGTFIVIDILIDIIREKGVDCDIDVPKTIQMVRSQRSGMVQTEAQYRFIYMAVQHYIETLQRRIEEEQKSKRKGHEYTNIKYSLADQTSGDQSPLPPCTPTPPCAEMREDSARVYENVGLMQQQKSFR

[11] = molecular target: T2, Carboxy-terminal domain RNA polymerase II polypeptide A small phosphatase 1 (Homo sapiens, UniProt Q9GZU7); experiment: CTDSP1 inhibitors, concentration-response, biochemical, absorbance readout, ultra-high-throughput screen actives (AID 540297); type: functional
T2 sequence (Q9GZU7 whole entry): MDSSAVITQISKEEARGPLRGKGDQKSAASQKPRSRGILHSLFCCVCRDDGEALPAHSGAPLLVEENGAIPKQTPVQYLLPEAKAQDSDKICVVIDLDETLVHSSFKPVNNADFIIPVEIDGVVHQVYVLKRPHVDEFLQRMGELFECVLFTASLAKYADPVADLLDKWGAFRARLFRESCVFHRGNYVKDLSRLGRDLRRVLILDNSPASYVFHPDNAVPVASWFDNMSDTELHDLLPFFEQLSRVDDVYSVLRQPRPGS

[12] = molecular target: Dual specificity protein phosphatase 3 (Homo sapiens, UniProt P51452); experiment: VHR phosphatase inhibition, dose response, selectivity assay for STEP inhibitor project, biochemical (AID 602374); type: functional; details: read-out: IC50_Mean
Chain of Dual specificity protein phosphatase 3 (P51452 whole entry): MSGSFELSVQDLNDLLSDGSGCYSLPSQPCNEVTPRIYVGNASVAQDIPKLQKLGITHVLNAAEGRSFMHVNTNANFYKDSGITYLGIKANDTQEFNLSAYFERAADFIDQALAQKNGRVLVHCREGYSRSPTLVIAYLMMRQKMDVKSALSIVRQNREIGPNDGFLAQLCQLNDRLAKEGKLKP

[13] = molecular target: T3, Tyrosine-protein phosphatase non-receptor type 22 (Homo sapiens, UniProt Q9Y2R2); experiment: lymphoid phosphatase LYP inhibitors – biochemical, selectivity assay for STEP inhibitor project, dose response (AID 624241); type: functional
T3 sequence (Q9Y2R2 whole entry): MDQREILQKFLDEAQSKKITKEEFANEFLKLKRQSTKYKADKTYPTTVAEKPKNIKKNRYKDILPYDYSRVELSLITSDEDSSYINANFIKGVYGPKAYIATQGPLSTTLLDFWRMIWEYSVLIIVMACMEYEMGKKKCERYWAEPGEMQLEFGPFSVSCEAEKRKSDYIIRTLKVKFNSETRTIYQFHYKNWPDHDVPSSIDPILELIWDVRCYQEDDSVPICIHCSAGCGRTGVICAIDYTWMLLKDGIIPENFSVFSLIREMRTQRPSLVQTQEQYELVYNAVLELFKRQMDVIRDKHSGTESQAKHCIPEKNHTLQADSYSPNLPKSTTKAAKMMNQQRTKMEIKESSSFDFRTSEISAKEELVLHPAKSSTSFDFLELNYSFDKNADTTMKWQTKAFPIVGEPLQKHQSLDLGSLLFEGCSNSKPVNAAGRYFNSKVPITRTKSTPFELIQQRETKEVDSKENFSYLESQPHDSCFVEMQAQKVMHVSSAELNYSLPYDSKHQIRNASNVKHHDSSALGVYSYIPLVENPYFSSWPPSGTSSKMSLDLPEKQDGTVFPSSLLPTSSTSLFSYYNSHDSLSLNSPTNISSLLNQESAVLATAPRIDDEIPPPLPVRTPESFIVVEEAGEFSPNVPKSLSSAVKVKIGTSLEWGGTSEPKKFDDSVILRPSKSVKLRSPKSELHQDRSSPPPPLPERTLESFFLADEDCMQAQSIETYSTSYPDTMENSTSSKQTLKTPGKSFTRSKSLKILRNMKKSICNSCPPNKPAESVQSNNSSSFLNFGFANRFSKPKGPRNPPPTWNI

[14] = molecular target: Tyrosine-protein phosphatase non-receptor type 5 (Homo sapiens, UniProt P54829); experiment: PTPN5 enzyme inhibition – biochemical, fluorescence intensity, uHTS hits, confirmation (AID 602372); type: functional; details: read-out: IC50_Mean
Chain of Tyrosine-protein phosphatase non-receptor type 5 (P54829 whole entry): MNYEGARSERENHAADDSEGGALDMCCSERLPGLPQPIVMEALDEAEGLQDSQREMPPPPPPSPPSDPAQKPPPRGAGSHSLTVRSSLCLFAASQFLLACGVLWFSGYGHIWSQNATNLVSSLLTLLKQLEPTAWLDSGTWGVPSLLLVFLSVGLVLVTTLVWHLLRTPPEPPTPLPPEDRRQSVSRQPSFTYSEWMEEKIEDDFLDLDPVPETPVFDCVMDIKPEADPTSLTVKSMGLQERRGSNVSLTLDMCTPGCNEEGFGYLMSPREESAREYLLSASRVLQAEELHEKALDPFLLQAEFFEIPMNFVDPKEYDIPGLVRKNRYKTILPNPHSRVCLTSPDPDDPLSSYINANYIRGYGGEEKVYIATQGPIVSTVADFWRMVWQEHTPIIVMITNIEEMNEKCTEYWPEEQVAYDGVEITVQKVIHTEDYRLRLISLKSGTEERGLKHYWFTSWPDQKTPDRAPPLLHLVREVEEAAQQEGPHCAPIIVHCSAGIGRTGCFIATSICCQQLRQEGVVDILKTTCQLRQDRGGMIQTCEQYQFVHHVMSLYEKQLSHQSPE

[15] = Counterscreen for antagonists of the human trace amine associated receptor 1 (hTAAR1): Fluorescence-based cell-based high throughput dose response assay to identify nonselective Ga16 antagonists.; type: functional
[16] = molecular target: T4, Trace amine-associated receptor 1 (Homo sapiens, UniProt Q96RJ0); experiment: Counterscreen for antagonists of the human trace amine associated receptor 1 (hTAAR1): Fluorescence-based cell-based high throughput dose response assay to identify TAAR1 Agonists.; type: functional
T4 sequence (Q96RJ0 whole entry): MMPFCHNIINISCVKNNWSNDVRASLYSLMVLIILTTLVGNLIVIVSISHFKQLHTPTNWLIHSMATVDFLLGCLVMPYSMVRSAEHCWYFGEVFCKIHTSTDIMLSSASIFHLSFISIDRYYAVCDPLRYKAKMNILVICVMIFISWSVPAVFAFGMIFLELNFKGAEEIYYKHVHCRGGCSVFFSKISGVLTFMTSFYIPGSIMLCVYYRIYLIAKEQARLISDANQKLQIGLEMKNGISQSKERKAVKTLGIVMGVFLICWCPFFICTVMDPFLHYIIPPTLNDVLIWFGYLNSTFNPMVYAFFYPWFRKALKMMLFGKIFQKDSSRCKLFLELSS

[17] = Counterscreen for […] of the human trace amine associated receptor 1 (TAAR1): Fluorescence-based cell-based high throughput dose response assay to identify nonselective Ga16 agonists.; type: functional
[18] = molecular target: T4, Trace amine-associated receptor 1; experiment: Fluorescence-based cell-based high throughput dose response assay to identify antagonists of the human trace amine associated receptor 1 (TAAR1).; type: functional
[19] = Luminescence Cell-Based Dose Retest to Confirm Inhibitors of Cancer Stem Cells. [Related pubchem assays (depositor defined):AID2717, AID2721]; type: functional; details: Homo sapiens
INS1 = experiment: INS-1E survival protection against cytokine death – cell-based, luminescence, retest, dose response (AID 449756); type: functional; details: Rattus norvegicus;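 also: cell death triggered by IL-1 beta plus TNF-alpha plus IFN-gamma mixture; protective hits raise ATP signal compared with cytokine alone wells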
[20] = Luminescence-based dose response cell-based high throughput screening assay for cytotoxic compounds using the IEC-6 intestinal epithelial cell line. [Related pubchem assays: 1858 (Summary AID.), 1825 (Counterscreen.), 1907 (Confirmation screen.)]; type: functional
[21] = general mammalian cell viability loss – inhibitor set, cherry-pick, set 2, cytotoxicity control for miR-122 modulator project, dose response (AID 720697); type: functional, cell-based
[22] = molecular target: T4, Trace amine-associated receptor 1; experiment: Fluorescence-based cell-based high throughput dose response assay to identify agonists of the human trace amine associated receptor 1 (TAAR1).; type: functional
[23] = molecular target: T4, Trace amine-associated receptor 1; experiment: Counterscreen for agonists of the human trace amine associated receptor 1 (hTAAR1): Fluorescence-based cell-based high throughput dose response assay to identify hTAAR1 agonist that also desensitize TAAR1 receptor response.; type: functional
Protein skinhead-1 = molecular target: T5, Protein skinhead-1 (Caenorhabditis elegans, UniProt P34707); type: functional
T5 sequence (P34707 whole entry): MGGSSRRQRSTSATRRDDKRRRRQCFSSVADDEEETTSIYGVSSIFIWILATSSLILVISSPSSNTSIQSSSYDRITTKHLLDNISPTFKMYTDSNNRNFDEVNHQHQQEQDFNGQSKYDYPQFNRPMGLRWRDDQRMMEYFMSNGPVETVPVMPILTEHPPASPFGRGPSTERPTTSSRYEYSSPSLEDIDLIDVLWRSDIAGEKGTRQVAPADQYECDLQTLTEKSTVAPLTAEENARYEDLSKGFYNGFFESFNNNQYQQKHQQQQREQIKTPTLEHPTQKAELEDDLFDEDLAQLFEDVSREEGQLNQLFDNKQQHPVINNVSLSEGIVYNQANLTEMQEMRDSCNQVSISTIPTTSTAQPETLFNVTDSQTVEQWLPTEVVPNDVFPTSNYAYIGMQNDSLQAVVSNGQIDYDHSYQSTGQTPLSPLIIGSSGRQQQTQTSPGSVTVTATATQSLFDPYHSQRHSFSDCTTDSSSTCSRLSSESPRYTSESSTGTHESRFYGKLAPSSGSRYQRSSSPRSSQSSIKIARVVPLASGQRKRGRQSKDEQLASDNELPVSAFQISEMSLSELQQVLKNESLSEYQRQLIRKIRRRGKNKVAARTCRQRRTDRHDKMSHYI

Large T antigen = Large T antigen (Simian virus 40, UniProt P03070); type: functional, Betapolyomavirus macacae;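 also: Confirmatory-stage PubChem screen for compounds that inhibit SV40 T antigen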
Chain of Large T antigen (P03070 whole entry): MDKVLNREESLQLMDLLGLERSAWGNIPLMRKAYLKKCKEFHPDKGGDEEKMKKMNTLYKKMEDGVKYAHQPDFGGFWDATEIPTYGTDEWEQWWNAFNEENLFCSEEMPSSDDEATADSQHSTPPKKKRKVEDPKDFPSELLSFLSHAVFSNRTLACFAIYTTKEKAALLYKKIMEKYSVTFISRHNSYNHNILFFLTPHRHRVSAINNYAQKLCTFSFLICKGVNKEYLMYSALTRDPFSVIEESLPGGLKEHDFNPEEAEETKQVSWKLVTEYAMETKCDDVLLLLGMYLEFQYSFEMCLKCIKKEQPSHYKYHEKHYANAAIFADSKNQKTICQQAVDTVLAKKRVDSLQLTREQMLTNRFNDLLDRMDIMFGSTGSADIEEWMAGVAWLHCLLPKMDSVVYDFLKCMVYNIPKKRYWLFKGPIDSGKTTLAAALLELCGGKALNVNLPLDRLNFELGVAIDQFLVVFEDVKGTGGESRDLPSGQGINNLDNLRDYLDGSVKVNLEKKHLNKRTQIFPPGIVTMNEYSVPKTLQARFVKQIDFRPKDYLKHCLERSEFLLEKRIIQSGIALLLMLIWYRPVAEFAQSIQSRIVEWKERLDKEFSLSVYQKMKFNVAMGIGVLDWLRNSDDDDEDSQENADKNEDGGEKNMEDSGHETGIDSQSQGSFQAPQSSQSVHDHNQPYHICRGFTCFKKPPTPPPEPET

[24] = molecular target: FAD-linked sulfhydryl oxidase ALR (Homo sapiens, UniProt P55789); experiment: ALR-catalysed DTT oxidation blockers – biochemical, H2O2 detection, luminescence, cherry-pick, dose response (AID 493248)
Chain of FAD-linked sulfhydryl oxidase ALR (P55789 whole entry): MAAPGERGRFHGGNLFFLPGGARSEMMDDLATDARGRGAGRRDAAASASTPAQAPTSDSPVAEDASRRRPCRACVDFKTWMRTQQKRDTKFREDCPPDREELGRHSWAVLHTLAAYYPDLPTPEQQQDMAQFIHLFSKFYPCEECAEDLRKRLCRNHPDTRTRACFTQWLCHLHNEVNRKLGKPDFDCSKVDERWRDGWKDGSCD

[25] = molecular target: 5-hydroxytryptamine receptor 2A (Mus musculus, UniProt P35363); type: functional, cell-based;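 also: CHO-K1 cells with tagged receptor and beta-arrestin; agonist potency measured as compound-induced activation of the receptor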
Chain of 5-hydroxytryptamine receptor 2A (P35363 whole entry): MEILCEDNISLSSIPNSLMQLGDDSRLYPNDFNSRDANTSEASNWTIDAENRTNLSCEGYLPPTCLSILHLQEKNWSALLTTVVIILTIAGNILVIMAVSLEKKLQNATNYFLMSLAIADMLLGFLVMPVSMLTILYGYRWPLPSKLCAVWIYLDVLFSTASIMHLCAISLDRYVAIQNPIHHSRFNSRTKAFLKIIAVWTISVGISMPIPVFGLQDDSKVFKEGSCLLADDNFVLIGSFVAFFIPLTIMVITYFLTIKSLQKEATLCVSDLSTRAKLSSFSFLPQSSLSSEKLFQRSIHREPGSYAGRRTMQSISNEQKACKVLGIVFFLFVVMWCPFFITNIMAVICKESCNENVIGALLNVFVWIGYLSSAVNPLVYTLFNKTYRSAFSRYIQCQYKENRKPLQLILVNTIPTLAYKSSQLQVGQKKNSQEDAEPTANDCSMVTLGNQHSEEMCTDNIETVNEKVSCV

Mu-type opioid receptor = Mu-type opioid receptor (Homo sapiens, UniProt P35372); type: functional, cell-based;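 also: U2OS cells with beta-arrestin recruitment to OPRM1 by beta-gal complementation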
Chain of Mu-type opioid receptor (P35372 whole entry): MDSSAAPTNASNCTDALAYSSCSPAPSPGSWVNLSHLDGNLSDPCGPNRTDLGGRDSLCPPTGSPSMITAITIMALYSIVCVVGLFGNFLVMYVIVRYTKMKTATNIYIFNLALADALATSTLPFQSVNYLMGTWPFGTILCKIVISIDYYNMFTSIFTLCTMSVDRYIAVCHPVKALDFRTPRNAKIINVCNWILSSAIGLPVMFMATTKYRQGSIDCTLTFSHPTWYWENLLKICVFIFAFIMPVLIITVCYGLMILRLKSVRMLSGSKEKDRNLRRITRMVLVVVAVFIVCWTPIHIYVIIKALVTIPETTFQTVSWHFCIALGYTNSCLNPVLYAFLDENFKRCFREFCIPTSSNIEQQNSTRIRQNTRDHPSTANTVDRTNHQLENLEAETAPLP

CC(C)N1C[C@@H](CN(C)Cc2ccc(Cl)cc2)Oc2c(NC(=O)c3ccnn3C)cccc2C1=O
AC50 [1]: 0.334 µM (active)

COc1ccc2c(c1OC)c(=O)n1c3ccc(OC(C)C(=O)NCCN4CCOCC4)cc3c3ccnc2c31 (stereo unspecified)
IC50 (H9c2): 21.3 µM (active)
AC50 [2]: 4.31 µM (active)

CCCCC(=O)Nc1nc(-c2ccc(C(=O)N3CCOCC3)cc2)cs1
IC50 (Fatty acid synthase): 35.3 µM (inactive)

C[C@H](NC(=O)C[C@H]1CC[C@@H]2[C@@H](COc3ccc(NS(=O)(=O)c4ccc(Cl)cc4)cc3C(=O)N2C)O1)c1ccccc1
AC50 [3]: 29.5 µM (active)
AC50 [4]: 18.2 µM (active)

CCOc1ccccc1NC(=O)C(OC(=O)c1ccc(N(C)C)cc1)c1ccccc1 (stereo unspecified)
EC50 [5]: 2.75 µM (active)

CCOc1ccc2nc(NN=C3C(=O)NC(=S)NC3=O)sc2c1
IC50 [6]: 13.9 µM (active)

CCn1cc(C(=O)NC2CCCc3c2cnn3-c2cccc(C)c2C)cn1 (stereo unspecified)
IC50 (Galanin receptor type 3): 0.874 µM (active)
EC50 (cells): > 29.9 µM (inactive)
IC50 [7]: > 80 µM (inactive)

CC(C)N1C[C@H](C)[C@@H](CN(C)C(=O)OC(C)(C)C)Oc2c(NC(=O)c3ccncc3)cccc2C1=O
IC50 [8]: > 20 µM (inactive)

O=C(NCCN1CCC2(CC1)C(=O)NCN2c1ccccc1)c1ccccc1F
AC50 (Vero): 31.5 µM (active)

COc1ccc(C(=O)NCc2cc(C)n(C)n2)cc1OC1CCN(C(C)C)CC1
IC50 [9]: 65.5 µM (inconclusive)

O=C(O)Cc1cccc(O)c(=O)c1C(=O)O
IC50 [10]: 0.376 µM (active)
IC50 [11]: 3.9 µM (active)
IC50 [12]: 0.544 µM (active)
IC50 [13]: 8.34 µM (active)
IC50 [14]: 11.6 µM (active)

Cc1ccc(S(=O)(=O)N2[C@@H](c3ccc(Br)cc3)C(C(=O)O)=CC[C@H]2c2ccc(Cl)cc2)cc1
IC50 [15]: 17.5 µM (inactive)
EC50 [16]: 13.1 µM (inactive)
EC50 [17]: > 29.9 µM (inactive)
IC50 [18]: 1.62 µM (active)

Cc1ccc(-c2nc(C(Cl)Cl)c3ccccc3n2)cc1
AC50 [19]: 1.1 µM (active)
AC50 [4]: 20 µM (active)
AC50 (INS1): 4.53 µM (active)
IC50 [20]: 0.373 µM (active)
AC50 [21]: 10.1 µM (active)

Oc1cc2c(c(Cl)c1O)CCNCC2c1ccccc1 (stereo unspecified)
EC50 [22]: 6.54 µM (active)
IC50 [23]: > 29.9 µM (inactive)
IC50 (Galanin receptor type 3): 3.83 µM (active)
IC50 (Protein skinhead-1): > 100 µM (inactive)
IC50 (Large T antigen): > 100 µM (active)
AC50 [24]: 3.83 µM (active)
EC50 [25]: 8.14 µM (active)
EC50 (Mu-type opioid receptor): 92.5 µM (inactive)
